{"source": "paper PMC12979414", "about": "“Ascending single-dose study of the safety, pharmacokinetics, and pharmacodynamics of CSTI-500, a novel monoamine triple reuptake inhibitor, first-in-human” (Psychopharmacology, 2025)", "origin": "cited, not measured here", "key": {"[1]": {"details": "clinical trials for Parkinson's disease; ref Astrup et al. [2008]"}, "[2]": {"parameters": "method as in Deest et al. [2021]", "details": "PWS patients, 6 months, doses as low as 25 mg; ref Deest et al. [2021]"}, "[3]": {"parameters": "method as in Zheng et al. [2015]", "details": "multiple-ascending-dose study, healthy subjects; ref Zheng et al. [2015]"}, "[4]": {"details": "PET occupancy study in healthy subjects, ref Learned et al. [2012]"}}, "note": "Like-named read-outs stand apart in the source and are kept apart here."}
{"smiles": "CCOC[C@@H]1[C@@H](c2ccc(Cl)c(Cl)c2)C[C@@H]2CC[C@H]1N2C", "note": "[tesofensine]", "values": [{"measurement": "weight loss as an AE", "setting": "[1]", "value": "significant weight loss"}]}
{"smiles": "CN[C@H]1CC[C@@H](c2ccc(Cl)c(Cl)c2)c2ccccc21", "note": "[sertraline]", "values": [{"measurement": "temper outbursts", "setting": "[2]", "value": "significantly reduced the temper outbursts"}]}
{"smiles": "COC[C@@H]1[C@@H](c2ccc(Cl)c(Cl)c2)C[C@@H]2CC[C@H]1N2", "note": "[GSK372475]", "values": [{"measurement": "SERT occupancy", "setting": "SERT; [4]", "value": "55-75%"}, {"measurement": "DAT occupancy", "setting": "DAT; [4]", "value": "60-80%"}, {"measurement": "efficacy and tolerability", "setting": "1-2 mg/d, two 10-week phase II trials in MDD patients, ref Learned et al. [2012]", "value": "neither efficacious nor well-tolerated"}]}
{"smiles": "CN1Cc2cc(-c3ccc(N)nn3)ccc2[C@H](c2ccc3ccccc3c2)C1", "note": "[BMS-820836]", "values": [{"measurement": "SERT occupancy", "setting": "SERT; 0.5 mg/d, near steady-state, healthy subjects, ref Zheng et al. [2015]", "value": "about 80%"}, {"measurement": "striatal DAT occupancies", "setting": "DAT; 0.5-2 mg/d, healthy volunteers, ref Zheng et al. [2015]", "value": "14-30%"}, {"measurement": "clinical efficacy", "setting": "0.25-2 mg/d, treatment-resistant MDD, two phase IIb trials, ref Bhagwagar et al. [2015]", "value": "no clinical superiority compared to duloxetine or escitalopram treatment"}, {"measurement": "heart rate", "setting": "[3]", "value": "linear dose-related escalation in heart rate"}]}
{"smiles": "N[C@@H]1CC[C@@H](c2ccc(Cl)c(Cl)c2)c2ccccc21", "note": "[SEP-225289]", "values": [{"measurement": "SERT occupancy", "setting": "SERT; single-doses 8-16 mg, healthy volunteers, all doses, ref DeLorenzo et al. [2011]", "value": "below 20%"}, {"measurement": "DAT occupancies, average values", "setting": "DAT; single-doses 8-16 mg, healthy volunteers, ref DeLorenzo et al. [2011]", "value": "33-49%"}, {"measurement": "depression symptoms", "setting": "phase II study in MDD patients, 8 weeks of treatment, ref Sharma et al. [2015]", "value": "no reduction of depression symptoms"}]}
